{"source": "patent US20060069132A1", "about": "“Azolecarboxamide herbicides” (priority 2004, published 2006)", "experiment_in_all_cases": "Test E pre-/postemergence herbicide test", "key": {"bermudagrass": {"tested_on": "bermudagrass", "type": "in vivo, Cynodon dactylon", "outline": "(§1)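 Test chemicals in a non-phytotoxic solvent mixture with surfactant applied preemergence to planted seeds and postemergence to plants 2 to 18 cm tall (1- to 4-leaf stage). After 12 to 14 days in the greenhouse, injury rated visually against untreated controls on a 0–100 scale (0 no effect, 100 complete control).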"}, "goosegrass": {"tested_on": "goosegrass", "type": "in vivo, Eleusine indica", "outline": "as §1"}, "pitted morningglory": {"tested_on": "pitted morningglory", "type": "in vivo, Ipomoea lacunosa", "outline": "as §1"}, "common ragweed": {"tested_on": "common ragweed", "type": "in vivo, Ambrosia elatior", "outline": "as §1"}, "mustard": {"tested_on": "mustard", "type": "in vivo, Brassica nigra", "outline": "as §1"}, "guineagrass": {"tested_on": "guineagrass", "type": "in vivo, Panicum maximum", "outline": "as §1"}, "barnyardgrass": {"tested_on": "barnyardgrass", "type": "in vivo, Echinochloa crus-galli", "outline": "as §1"}, "broadleaf signalgrass": {"tested_on": "broadleaf signalgrass", "type": "in vivo, Brachiaria platyphylla", "outline": "as §1"}, "common groundsel": {"tested_on": "common groundsel", "type": "in vivo, Senecio vulgaris", "outline": "as §1"}, "itchgrass": {"tested_on": "itchgrass", "type": "in vivo, Rottboellia cochinchinensis", "outline": "as §1"}, "Canada horseweed": {"tested_on": "Canada horseweed", "type": "in vivo, Erigeron Canadensis", "outline": "as §1"}, "field bindweed": {"tested_on": "field bindweed", "type": "in vivo, Convolvulus arvensis", "outline": "as §1"}, "[1]": {"conditions": "Preemergence, 125 g ai/ha, scale 0 to 100"}, "[2]": {"conditions": "Preemergence, 250 g ai/ha, scale 0 (no effect) to 100 (complete control)"}, "[3]": {"conditions": "Postemergence, 500 g ai/ha, scale 0 to 100"}, "[4]": {"conditions": "Postemergence, 250 g ai/ha, scale 0 to 100"}, "[5]": {"conditions": "Preemergence, 62 g ai/ha, scale 0 to 100"}, "[6]": {"conditions": "Preemergence, 500 g ai/ha, scale 0 (no effect) to 100 (complete control)"}, "[7]": {"conditions": "postemergence, 125 g ai/ha, scale 0 to 100"}, "[8]": {"conditions": "postemergence, 62 g ai/ha, scale 0 to 100"}}}
{"smiles": "CCc1nn(C(C)C)nc1C(=O)Nc1cccc(C(=O)N(C)CC)c1", "note": "[Compound 386]", "values": [{"measurement": "Plant response rating, Bermudagrass", "setting": "bermudagrass; [1]", "value": 80}, {"measurement": "Plant response rating, Bermudagrass", "setting": "bermudagrass; [2]", "value": 95}, {"measurement": "Plant response rating, Goosegrass", "setting": "goosegrass; [1]", "value": 80}, {"measurement": "Plant response rating, Goosegrass", "setting": "goosegrass; [2]", "value": 95}, {"measurement": "Plant response rating, Morningglory", "setting": "pitted morningglory; [1]", "value": 20}, {"measurement": "Plant response rating, Morningglory", "setting": "pitted morningglory; [2]", "value": 40}, {"measurement": "Plant response rating, Ragweed", "setting": "common ragweed; [1]", "value": 20}, {"measurement": "Plant response rating, Ragweed", "setting": "common ragweed; [2]", "value": 60}, {"measurement": "Plant response rating, Black Mustard", "setting": "mustard; [2]", "value": 70}, {"measurement": "Plant response rating, Guineagrass", "setting": "guineagrass; [1]", "value": 80}, {"measurement": "Plant response rating, Guineagrass", "setting": "guineagrass; [2]", "value": 100}, {"measurement": "Plant response rating, Barnyardgrass", "setting": "barnyardgrass; [1]", "value": 80}, {"measurement": "Plant response rating, Barnyardgrass", "setting": "barnyardgrass; [2]", "value": 100}, {"measurement": "Plant response rating, Signalgrass", "setting": "broadleaf signalgrass; [1]", "value": 30}, {"measurement": "Plant response rating, Signalgrass", "setting": "broadleaf signalgrass; [2]", "value": 85}, {"measurement": "Plant response rating, Groundsel", "setting": "common groundsel; [1]", "value": 30}, {"measurement": "Plant response rating, Groundsel", "setting": "common groundsel; [2]", "value": 50}, {"measurement": "Plant response rating, Itchgrass", "setting": "itchgrass; [1]", "value": 70}, {"measurement": "Plant response rating, Itchgrass", "setting": "itchgrass; [2]", "value": 70}, {"measurement": "Plant response rating, Horseweed", "setting": "Canada horseweed; [1]", "value": 75}, {"measurement": "Plant response rating, Horseweed", "setting": "Canada horseweed; [2]", "value": 95}, {"measurement": "Plant response rating, Bindweed, Field", "setting": "field bindweed; [1]", "value": 20}, {"measurement": "Plant response rating, Bindweed, Field", "setting": "field bindweed; [2]", "value": 60}]}
{"smiles": "CCc1nn(C(C)(C)C)cc1C(=O)Nc1cc(C(=O)N(C)C)ccc1F", "note": "[Compound 222, N-[5-[(dimethylamino)carbonyl]-2-fluorophenyl]-1-(1,1-dimethylethyl)-3-ethyl-1H-pyrazole-4-carboxamide]", "values": [{"measurement": "Plant response rating, Bermudagrass", "setting": "bermudagrass; [3]", "value": 80}, {"measurement": "Plant response rating, Bermudagrass", "setting": "bermudagrass; [4]", "value": 80}, {"measurement": "Plant response rating, Bermudagrass", "setting": "bermudagrass; [5]", "value": 80}, {"measurement": "Plant response rating, Bermudagrass", "setting": "bermudagrass; [1]", "value": 100}, {"measurement": "Plant response rating, Bermudagrass", "setting": "bermudagrass; [2]", "value": 100}, {"measurement": "Plant response rating, Bermudagrass", "setting": "bermudagrass; [6]", "value": 100}, {"measurement": "Plant response rating, Bermudagrass", "setting": "bermudagrass; [7]", "value": 80}, {"measurement": "Plant response rating, Bermudagrass", "setting": "bermudagrass; [8]", "value": 60}, {"measurement": "Plant response rating, Goosegrass", "setting": "goosegrass; [3]", "value": 90}, {"measurement": "Plant response rating, Goosegrass", "setting": "goosegrass; [4]", "value": 90}, {"measurement": "Plant response rating, Goosegrass", "setting": "goosegrass; [5]", "value": 60}, {"measurement": "Plant response rating, Goosegrass", "setting": "goosegrass; [1]", "value": 75}, {"measurement": "Plant response rating, Goosegrass", "setting": "goosegrass; [2]", "value": 90}, {"measurement": "Plant response rating, Goosegrass", "setting": "goosegrass; [6]", "value": 95}, {"measurement": "Plant response rating, Goosegrass", "setting": "goosegrass; [7]", "value": 75}, {"measurement": "Plant response rating, Goosegrass", "setting": "goosegrass; [8]", "value": 60}, {"measurement": "Plant response rating, Morningglory", "setting": "pitted morningglory; [3]", "value": 90}, {"measurement": "Plant response rating, Morningglory", "setting": "pitted morningglory; [4]", "value": 60}, {"measurement": "Plant response rating, Morningglory", "setting": "pitted morningglory; [1]", "value": 30}, {"measurement": "Plant response rating, Morningglory", "setting": "pitted morningglory; [2]", "value": 40}, {"measurement": "Plant response rating, Morningglory", "setting": "pitted morningglory; [6]", "value": 95}, {"measurement": "Plant response rating, Morningglory", "setting": "pitted morningglory; [7]", "value": 40}, {"measurement": "Plant response rating, Morningglory", "setting": "pitted morningglory; [8]", "value": 20}, {"measurement": "Plant response rating, Ragweed", "setting": "common ragweed; [4]", "value": 70}, {"measurement": "Plant response rating, Ragweed", "setting": "common ragweed; [5]", "value": 30}, {"measurement": "Plant response rating, Ragweed", "setting": "common ragweed; [1]", "value": 85}, {"measurement": "Plant response rating, Ragweed", "setting": "common ragweed; [2]", "value": 95}, {"measurement": "Plant response rating, Ragweed", "setting": "common ragweed; [6]", "value": 95}, {"measurement": "Plant response rating, Ragweed", "setting": "common ragweed; [7]", "value": 60}, {"measurement": "Plant response rating, Ragweed", "setting": "common ragweed; [8]", "value": 20}, {"measurement": "Plant response rating, Black Mustard", "setting": "mustard; [3]", "value": 95}, {"measurement": "Plant response rating, Black Mustard", "setting": "mustard; [4]", "value": 95}, {"measurement": "Plant response rating, Black Mustard", "setting": "mustard; [5]", "value": 90}, {"measurement": "Plant response rating, Black Mustard", "setting": "mustard; [1]", "value": 100}, {"measurement": "Plant response rating, Black Mustard", "setting": "mustard; [2]", "value": 100}, {"measurement": "Plant response rating, Black Mustard", "setting": "mustard; [6]", "value": 100}, {"measurement": "Plant response rating, Black Mustard", "setting": "mustard; [7]", "value": 90}, {"measurement": "Plant response rating, Black Mustard", "setting": "mustard; [8]", "value": 90}, {"measurement": "Plant response rating, Guineagrass", "setting": "guineagrass; [4]", "value": 100}, {"measurement": "Plant response rating, Guineagrass", "setting": "guineagrass; [5]", "value": 90}, {"measurement": "Plant response rating, Guineagrass", "setting": "guineagrass; [1]", "value": 95}, {"measurement": "Plant response rating, Guineagrass", "setting": "guineagrass; [2]", "value": 100}, {"measurement": "Plant response rating, Guineagrass", "setting": "guineagrass; [6]", "value": 100}, {"measurement": "Plant response rating, Guineagrass", "setting": "guineagrass; [7]", "value": 70}, {"measurement": "Plant response rating, Guineagrass", "setting": "guineagrass; [8]", "value": 70}, {"measurement": "Plant response rating, Barnyardgrass", "setting": "barnyardgrass; [4]", "value": 70}, {"measurement": "Plant response rating, Barnyardgrass", "setting": "barnyardgrass; [5]", "value": 50}, {"measurement": "Plant response rating, Barnyardgrass", "setting": "barnyardgrass; [1]", "value": 90}, {"measurement": "Plant response rating, Barnyardgrass", "setting": "barnyardgrass; [2]", "value": 100}, {"measurement": "Plant response rating, Barnyardgrass", "setting": "barnyardgrass; [6]", "value": 100}, {"measurement": "Plant response rating, Barnyardgrass", "setting": "barnyardgrass; [7]", "value": 50}, {"measurement": "Plant response rating, Barnyardgrass", "setting": "barnyardgrass; [8]", "value": 50}, {"measurement": "Plant response rating, Signalgrass", "setting": "broadleaf signalgrass; [3]", "value": 85}, {"measurement": "Plant response rating, Signalgrass", "setting": "broadleaf signalgrass; [4]", "value": 80}, {"measurement": "Plant response rating, Signalgrass", "setting": "broadleaf signalgrass; [5]", "value": 10}, {"measurement": "Plant response rating, Signalgrass", "setting": "broadleaf signalgrass; [1]", "value": 60}, {"measurement": "Plant response rating, Signalgrass", "setting": "broadleaf signalgrass; [2]", "value": 95}, {"measurement": "Plant response rating, Signalgrass", "setting": "broadleaf signalgrass; [6]", "value": 95}, {"measurement": "Plant response rating, Signalgrass", "setting": "broadleaf signalgrass; [7]", "value": 40}, {"measurement": "Plant response rating, Signalgrass", "setting": "broadleaf signalgrass; [8]", "value": 10}, {"measurement": "Plant response rating, Groundsel", "setting": "common groundsel; [3]", "value": 100}, {"measurement": "Plant response rating, Groundsel", "setting": "common groundsel; [4]", "value": 95}, {"measurement": "Plant response rating, Groundsel", "setting": "common groundsel; [5]", "value": 30}, {"measurement": "Plant response rating, Groundsel", "setting": "common groundsel; [1]", "value": 100}, {"measurement": "Plant response rating, Groundsel", "setting": "common groundsel; [2]", "value": 100}, {"measurement": "Plant response rating, Groundsel", "setting": "common groundsel; [6]", "value": 100}, {"measurement": "Plant response rating, Groundsel", "setting": "common groundsel; [7]", "value": 70}, {"measurement": "Plant response rating, Groundsel", "setting": "common groundsel; [8]", "value": 40}, {"measurement": "Plant response rating, Itchgrass", "setting": "itchgrass; [4]", "value": 70}, {"measurement": "Plant response rating, Itchgrass", "setting": "itchgrass; [5]", "value": 75}, {"measurement": "Plant response rating, Itchgrass", "setting": "itchgrass; [1]", "value": 95}, {"measurement": "Plant response rating, Itchgrass", "setting": "itchgrass; [2]", "value": 95}, {"measurement": "Plant response rating, Itchgrass", "setting": "itchgrass; [6]", "value": 95}, {"measurement": "Plant response rating, Itchgrass", "setting": "itchgrass; [7]", "value": 60}, {"measurement": "Plant response rating, Itchgrass", "setting": "itchgrass; [8]", "value": 60}, {"measurement": "Plant response rating, Horseweed", "setting": "Canada horseweed; [3]", "value": 100}, {"measurement": "Plant response rating, Horseweed", "setting": "Canada horseweed; [4]", "value": 90}, {"measurement": "Plant response rating, Horseweed", "setting": "Canada horseweed; [5]", "value": 100}, {"measurement": "Plant response rating, Horseweed", "setting": "Canada horseweed; [1]", "value": 100}, {"measurement": "Plant response rating, Horseweed", "setting": "Canada horseweed; [2]", "value": 100}, {"measurement": "Plant response rating, Horseweed", "setting": "Canada horseweed; [6]", "value": 100}, {"measurement": "Plant response rating, Horseweed", "setting": "Canada horseweed; [7]", "value": 40}, {"measurement": "Plant response rating, Horseweed", "setting": "Canada horseweed; [8]", "value": 20}, {"measurement": "Plant response rating, Bindweed, Field", "setting": "field bindweed; [4]", "value": 95}, {"measurement": "Plant response rating, Bindweed, Field", "setting": "field bindweed; [1]", "value": 40}, {"measurement": "Plant response rating, Bindweed, Field", "setting": "field bindweed; [2]", "value": 95}, {"measurement": "Plant response rating, Bindweed, Field", "setting": "field bindweed; [6]", "value": 95}, {"measurement": "Plant response rating, Bindweed, Field", "setting": "field bindweed; [7]", "value": 75}, {"measurement": "Plant response rating, Bindweed, Field", "setting": "field bindweed; [8]", "value": 60}]}
